Among the data in PubChem BioAssay AID1508612 are Papp values, retold here.

Molecules are shown by their SMILES.

The data set in a line: passive permeability, PAMPA, ADME assay (AID 1508612). The conditions noted are these: pH 7.4, 30.0 min, 50.0 µM.
Consider `O=C1CCCC2=C1C1(CCS(=O)(=O)C1)N=C(Nc1nc3ccccc3o1)N2` (stereo unspecified), for which the Papp worked out at 176 ×10⁻⁶ cm/s.

`NC(=O)C1CCN(c2nc(-c3ccc(Br)cc3)cs2)CC1`: the apparent permeability (Papp) was 241 ×10⁻⁶ cm/s.

The molecule `CC(=O)NCCNC[C@@H]1C=C(C)[C@H](Cc2nnc(-c3ccccc3)o2)C[C@H]1C(C)C` returned a Papp of 624 ×10⁻⁶ cm/s.

Molecule `CC[C@@]1(O)C(=O)OCc2c1cc1n(c2=O)Cc2c-1nc1ccccc1c2CCNC(C)C` came in with a Papp of under 1 ×10⁻⁶ cm/s.

On to `Cc1ccc(C(=O)N2CCc3c(nc4cc(-c5ccccc5)[nH]n4c3=O)C2)cn1`, for which the Papp was under 1 ×10⁻⁶ cm/s.

In the case of `Nc1nc2c(s1)C(c1ccccc1OCc1ccccc1Cl)CC(=O)N2` (stereo unspecified), the Papp worked out at 509 ×10⁻⁶ cm/s.

For the molecule `COc1cccc(CNc2ccc(S(=O)(=O)Nc3cccs3)cc2)c1O`, the Papp stood at 572 ×10⁻⁶ cm/s.

On to `CCS(=O)(=O)N1CC(CC#N)(n2cc(-c3ncnc4[nH]ccc34)cn2)C1`, for which the Papp came to 11.1 ×10⁻⁶ cm/s.

For `COc1cc(NS(=O)(=O)c2ccc(C)cc2)c(C(=O)Nc2nc(-c3ccccc3)cs2)cc1OC`, the Papp was found to be 325 ×10⁻⁶ cm/s.

As to `O=[S+]([O-])(Nc1nccs1)c1ccc(NCc2cc(F)cc(Cl)c2O)cc1`, the Papp turned out to be 18.1 ×10⁻⁶ cm/s.

Consider `Fc1cccc(CNc2nc(-c3ccccc3C(F)(F)F)nc3ccccc23)c1`, for which the Papp was found to be 315 ×10⁻⁶ cm/s.

Take `CCCN1C(CC(C)C)=NS(=O)(=O)c2cc(NC(=O)c3cccs3)ccc21`: the Papp stood at 762 ×10⁻⁶ cm/s.

Consider `COc1cccc(NS(=O)(=O)c2ccc(NCc3cccc(OC)c3O)cc2)c1`, for which the Papp amounted to 603 ×10⁻⁶ cm/s.

`O=C(O)c1cn(C2CC2)c2cc(N3C[C@@H]4C[C@H]3CN4)c(F)cc2c1=O` had a Papp of under 1 ×10⁻⁶ cm/s.

Turning to `CC(C)(C)c1ccc(C(=O)N2CC(=O)Nc3ccc(F)cc3C2c2ccc(F)cc2)cc1` (stereo unspecified), the Papp was over 1000 ×10⁻⁶ cm/s.

`N#Cc1ccc(C(=O)Nc2ccc(Cl)c(-c3nc4cc(Cl)ccc4o3)c2)c(F)c1` yielded a Papp of under 1 ×10⁻⁶ cm/s.

`CC1CCCCN1c1ncnc(N)c1[N+](=O)[O-]` (stereo unspecified) displayed a Papp of 269 ×10⁻⁶ cm/s.

Molecule `O=C1CCCCc2cc(O)c(O)cc21` had a Papp of 20.9 ×10⁻⁶ cm/s.

For the molecule `CC(C)(C)n1nc(-c2ccc(Cl)cc2)c2c(N)ncnc21`, the Papp is over 1000 ×10⁻⁶ cm/s.

In the case of `O=C(c1nc(-c2ccc(Cl)nc2)c2ccccn12)N1CCCC1`, the Papp was over 1000 ×10⁻⁶ cm/s.

For the molecule `O=C(NCCCn1ccnc1)c1nc(-c2ccccc2)cc2[nH]ccc12`, the Papp turned out to be 597 ×10⁻⁶ cm/s.

`CCC(=O)NC(c1cccs1)c1cc([N+](=O)[O-])c2cccnc2c1O` (stereo unspecified) gave a Papp of 36.3 ×10⁻⁶ cm/s.

Regarding `Cc1cc(-c2nnc3n2CCCCC3)c(C)n1-c1ccc(C(C)(C)C)cc1`, the Papp was over 1000 ×10⁻⁶ cm/s.

As for `O=C1CCCC2=C1C(c1ncccc1Br)N=C(Nc1nc3ccccc3o1)N2` (stereo unspecified), the Papp stood at 371 ×10⁻⁶ cm/s.

`CC1(C)CC2CC(C)(CN2S(=O)(=O)c2ccc(C(=O)Nc3ccc(Cl)cc3)cc2)C1` (stereo unspecified) had a Papp of over 1000 ×10⁻⁶ cm/s.

Consider `Cc1cc(SCc2sc(-c3ccc(C(F)(F)F)cc3)nc2C)ccc1OCC(=O)O`, for which the Papp stood at 520 ×10⁻⁶ cm/s.

`O=[N+]([O-])c1cccc(CNc2ccc(S(=O)(=O)Nc3nccs3)cc2)c1O`: the Papp amounted to 28.6 ×10⁻⁶ cm/s.

Regarding `COc1cc2cc(CN3CCC(N(C)C)C3)c(-c3cccc(Cl)c3)nc2cc1OC` (stereo unspecified), the Papp is over 1000 ×10⁻⁶ cm/s.

`O=C(NCc1ccco1)c1nc2nc(-c3cccs3)cc(C(F)(F)F)n2n1` had a Papp of 257 ×10⁻⁶ cm/s.

The molecule `O=C(Nc1ccc(S(=O)(=O)Nc2nc(-c3ccccc3)cs2)cc1)c1ccc2ccccc2c1` returned a Papp of under 1 ×10⁻⁶ cm/s.

The molecule `Fc1cnc(-c2ccccc2C(F)F)nc1NCC1CCN(c2cnccn2)C1` (stereo unspecified) returned a Papp of over 1000 ×10⁻⁶ cm/s.

With `O=S(=O)(Nc1nccs1)c1ccc(NCc2ccccc2)cc1`, the Papp was found to be 320 ×10⁻⁶ cm/s.

In turn, `CCN(CC)C(=O)c1ccc2c(c1)ncn2-c1cccc(C)c1` gave a Papp of 889 ×10⁻⁶ cm/s.

Consider `Cc1cccc(C(=O)Nc2ccc(N3CCC(N4CCCCC4)CC3)c(C(=O)O)c2)c1`, for which the Papp came to 5.2 ×10⁻⁶ cm/s.

In turn, `CS(=O)(=O)c1ccc(-c2nnc(/C=C/c3nnc(-c4ccc(C#N)cc4)o3)n2-c2ccccc2Cl)nc1` displayed a Papp of over 1000 ×10⁻⁶ cm/s.

As for `COc1ccc2c(ccn2CCC(=O)Nc2ccc3c(c2)C(=O)N2CCC[C@H]2C(=O)N3)c1`, the Papp was determined as 22.6 ×10⁻⁶ cm/s.

Regarding `CC(=O)c1ccc(N2CCN(S(=O)(=O)c3ccc4c(c3)CC(=O)N4)CC2)cc1`, the apparent permeability coefficient (Papp) stood at 429 ×10⁻⁶ cm/s.

With `CC[S+](=O)([O-])Nc1ccccc1C(=O)Nc1nc(-c2ccccc2)cs1`, the Papp is 512 ×10⁻⁶ cm/s.

`O=C(Nc1ccc([S+](=O)([O-])Nc2nccs2)cc1)c1ncn[nH]1` showed a Papp of under 1 ×10⁻⁶ cm/s.

In turn, `COc1c(O)cc2c(c1OC)-c1ccc(SC)c(=O)cc1C(NC(C)=O)CC2` (stereo unspecified) showed a Papp of 19.5 ×10⁻⁶ cm/s.

Molecule `COc1ccc(NC(=O)C2=C(C)NC(Nc3nc4ccccc4o3)=NC2c2ccccc2Br)cc1` (stereo unspecified) registered an apparent permeability (Papp) of 371 ×10⁻⁶ cm/s.

For the molecule `O=C(c1ccccc1)N1CCC(C(=O)N2CCC(N3Cc4ccccc4C3=O)CC2)CC1`, the Papp is 24.9 ×10⁻⁶ cm/s.

Consider `CCOc1ccc(CCNC(=O)c2cc3sccc3n2Cc2ccncc2)cc1OCC`, for which the Papp is over 1000 ×10⁻⁶ cm/s.

`Cc1cc(-c2nnc3n2CCCCC3)c(C)n1-c1ccc(C(F)(F)F)cc1`: the Papp is over 1000 ×10⁻⁶ cm/s.

`Cc1ccccc1C(=O)N1CCc2cc(-c3nc(NC(=O)Cc4ccccc4)sc3C)ccc21` registered a Papp of over 1000 ×10⁻⁶ cm/s.

On to `Fc1ccc(-c2ccc(Nc3nc(-c4ccncc4)nc4ccccc34)cc2F)c(F)c1`, for which the Papp came out at 19.5 ×10⁻⁶ cm/s.

Molecule `CCOC(=O)c1cc(-c2ccco2)nc2c1c(C)nn2CCC#N` registered a Papp of 989 ×10⁻⁶ cm/s.

In turn, `CN1CCN(c2ccc(Nc3nn4c(=O)c5ccccc5nc4s3)cc2)CC1` yielded a Papp of 653 ×10⁻⁶ cm/s.

`Cc1nc2sccn2c(=O)c1S(=O)(=O)Nc1ccc(N2CCN(S(C)(=O)=O)CC2)cc1`: the Papp amounted to 209 ×10⁻⁶ cm/s.

For `Cc1sc(NC(=O)Cc2ccc3c(c2)OCO3)nc1-c1ccc2c(c1)CCN2C(=O)c1ccccc1F`, the Papp amounted to 1.4 ×10⁻⁶ cm/s.

The molecule `COc1ccccc1CNS(=O)(=O)c1ccc(-c2cnc(C3CC3)o2)cc1` yielded an apparent permeability (Papp) of over 1000 ×10⁻⁶ cm/s.

The molecule `O=C1NC(=S)NC(=O)C1=Cc1cccn1-c1ccc(O)cc1` had a Papp of 44.1 ×10⁻⁶ cm/s.

For the molecule `S=C(NCCCc1cnc[nH]1)NCCCN(Cc1ccc(Cl)c(Cl)c1)c1ccc(Br)cn1`, the Papp was 14 ×10⁻⁶ cm/s.

Consider `Cc1noc(C)c1-c1cc(-c2ccc3c(c2)C(=O)NC3)cn2cncc12`, for which the Papp turned out to be 143 ×10⁻⁶ cm/s.

As for `COc1cc2ncnc(Oc3cccc(NC(=O)Nc4cc(C(C)(C)C(F)(F)F)on4)c3)c2cc1OC`, the Papp is 36.1 ×10⁻⁶ cm/s.

`COc1ccc(C(=O)NC2CCCc3c2[nH]c2ccccc32)cc1OC` (stereo unspecified) came in with an apparent permeability (Papp) of 38.1 ×10⁻⁶ cm/s.

As to `Cc1c(C(=O)NN2CCCCC2)nn(-c2ccc(Cl)cc2Cl)c1-c1ccc(Cl)cc1`, the apparent permeability (Papp) was over 1000 ×10⁻⁶ cm/s.

For the molecule `Cc1cnc(-c2ccccc2C(C)C)nc1NCc1ccc(-n2ccnn2)cc1`, the Papp was over 1000 ×10⁻⁶ cm/s.

Regarding `Cc1cc(NC(=O)c2ccc(NC(=O)Cc3ccc(Cl)c(Cl)c3)cc2)no1`, the apparent permeability (Papp) was over 1000 ×10⁻⁶ cm/s.

The molecule `CN(C)C(=O)c1nc(-c2ccc(Cl)nc2)c2ccccn12` came in with an apparent permeability (Papp) of over 1000 ×10⁻⁶ cm/s.

As for `Cc1cnc(CNc2nc(-c3ccccc3Cl)nc3ccccc23)cn1`, the Papp was over 1000 ×10⁻⁶ cm/s.

In turn, `CC1=C(C(=O)Nc2nc3ccccc3s2)C(c2[nH]ncc2Cl)N=C(Nc2nc3ccccc3o2)N1` (stereo unspecified) gave a Papp of 6 ×10⁻⁶ cm/s.

Consider `COc1cccc(CNc2ccc(S(=O)(=O)Nc3ccccc3)cc2)c1O`, for which the Papp is over 1000 ×10⁻⁶ cm/s.

In the case of `O=C(CSc1ccccc1)Nc1nnc(COc2ccc(Cl)cc2)s1`, the Papp worked out at 498 ×10⁻⁶ cm/s.

As for `Fc1cc(Nc2nc(-c3ccncc3)nc3ccccc23)ccc1-n1cncn1`, the Papp was found to be 171 ×10⁻⁶ cm/s.

With `c1ccc(-c2nnc3n2NC(c2ccc4c(c2)OCO4)S3)cc1` (stereo unspecified), the apparent permeability coefficient (Papp) was found to be 607 ×10⁻⁶ cm/s.

As usually defined, the Papp is the rate of passage across a membrane or cell layer, normalised by area and donor concentration.
